Values of other authors, collected in patent publication US6908924B2, “N4-acylcytosine-1,3-dioxolane nucleosides for treatment of viral infections” (Pharmasset, Inc., priority 2001, dated 2005).

What was measured:
[1] = tested on: HIV-1; conditions: as a reverse transcriptase inhibitor (RTI)
[2] = target: HIV reverse transcriptase (HIV-RT) (Human immunodeficiency virus type 1 group M subtype B, UniProt P04585)

SMILES | inhibition of HIV-1 replication in vitro [1] | Ki [2] [nM]
Nc1nc(N)c2ncn([C@H]3CO[C@@H](CO)O3)c2n1 [DAPD, (−)-(2R,4R)-2-amino-9-[(2-hydroxymethyl)-1,3-dioxolan-4-yl]adenine] | selective inhibitor | –
Nc1nc2c(ncn2[C@H]2CO[C@@H](COP(=O)(O)OP(=O)(O)OP(=O)(O)O)O2)c(=O)[nH]1 [DXG-TP] | – | 19
